Experimental data published in US20240174693A1, “SOMATOSTATIN RECEPTOR SUBTYPE 4 (SSTR4) AGONISTS AND THEIR APPLICATIONS” (Humanwell Pharmaceutical US, priority 2022, published 2024).
pIC50: −log10 of the molar value. Read-outs that look alike come from different tables or passages of the source.

How the values were obtained:
KM mice = assay: Acetic acid induced writhing test; type: in vivo; conditions: 30 mg/kg s.c.; for No. of writhing's: 0.6% acetic acid 15 min after dosing, 30-minute period; for Percentage of Inhibition / Significant compared to the model group: writhing
Method: Fifteen minutes after administration, a 0.6% acetic acid solution (5 mL/kg) was injected into the abdominal cavity. The mice were then placed in an observation box, and the number of writhing episodes was recorded within a 30-minute period. The assessment of pain intensity was based on the observation of the mice's writhing behavior.

Thermodynamic solubility = type: physicochemical; conditions: aqueous buffer, thermodynamic from solid, PBS(Ph 7.4), equilibrated over night at room temperature
Method: Assay buffer was added into compound powder to make 4 mg/ml solution. Sample tubes were shaken for 1 hour at 1000 rpm, then equilibrated over night at room temperature. Samples were centrifuged for 10 minutes at 12000 rpm to precipitate out un-dissolved particles. Supernatants were transferred to new tubes. Concentrations of the supernatants after centrifugation were determined by LCMSMS detection.

CYP1A2 = target: T1, CYP1A2 (Homo sapiens, UniProt P05177); assay: CYP inhibition in HLM, CYP1A2; type: in vitro ADME; conditions: read-out: CYP inhibition (IC50 um) 1A2
T1 construct: from tissue; host or cells: liver microsomes (HLM)
T1 sequence (P05177 1-516): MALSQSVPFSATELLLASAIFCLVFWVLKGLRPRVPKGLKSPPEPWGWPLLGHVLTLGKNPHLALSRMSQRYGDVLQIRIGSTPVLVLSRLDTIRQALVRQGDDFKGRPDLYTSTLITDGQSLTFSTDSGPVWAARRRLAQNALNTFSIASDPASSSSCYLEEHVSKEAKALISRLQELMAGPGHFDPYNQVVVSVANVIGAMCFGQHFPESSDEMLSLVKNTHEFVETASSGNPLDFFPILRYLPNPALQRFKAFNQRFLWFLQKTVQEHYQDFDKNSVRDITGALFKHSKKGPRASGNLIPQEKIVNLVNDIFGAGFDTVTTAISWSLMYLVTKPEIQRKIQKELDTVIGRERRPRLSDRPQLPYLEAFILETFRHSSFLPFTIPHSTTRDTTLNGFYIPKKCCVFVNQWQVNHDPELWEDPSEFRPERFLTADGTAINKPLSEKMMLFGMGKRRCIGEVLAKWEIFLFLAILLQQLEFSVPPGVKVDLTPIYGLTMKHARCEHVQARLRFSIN
Method: (§1) 0.1 M potassium phosphate buffer (K-buffer), pH 7.4 was preheated. K-buffer was prepared by mixing 9.5 mL Stock A into 40.5 mL Stock B. The total volume was brought to 500 mL with Milli-Q water. The buffer was titrated with KOH or H3PO4 to pH 7.4. Stock A (1 M monobasic potassium phosphate) was prepared by adding 136.5 g of monobasic potassium phosphate into 1 L of Milli-Q water. Stock B (1 M dibasic potassium phosphate) was prepared by adding 174.2 g of dibasic potassium phosphate in 1 L of Milli-Q water.
(§2) Serial dilution for test compound and reference inhibitors (400×) was prepared in a 96-well plate. 8 μL of 10 mM test compounds was transferred to 12 μL of ACN. Inhibitor spiking solution was prepared for CYP1A2, CYP2C9 and CYP2D6 in cocktail by adding 12 μL of 1 mM α-Naphthoflavon, 10 μL of 40 mM Sulfaphenazole, 10 μL of 10 mM Quinidine, and 8 μL of DMSO. Individual inhibitor spiking solution for CYP3A4 and CYP2C19 was prepared by adding 8 μL of DMSO stock to 12 μL of ACN. 1:3 serial dilutions were performed in DMSO:ACN mixture (v/v: 40:60).
(§3) NADPH cofactor was prepared by dissolving 66.7 mg NADPH in 10 mL 0.1 M K-buffer, pH7.4. 4×substrate (2 mL for each isoform) was prepared. HLM was added were required on ice. 0.2 mg/mL HLM solution was prepared using 10 μL of 20 mg/mL to 990 μL of 0.1 M K-buffer on ice. 400 μL of 0.2 mg/mL HLM were added to the assay wells and then 2 μL of 400×test compound set were added into the designated wells on ice. 200 μL of 0.2 mg/mL HLM was added to the assay wells and followed by 1 μL of serially diluted reference inhibtor solution into the designated wells on ice. The following solutions were added in duplicated in a 96-well plate on ice: 30 μL of 2×test compound and reference compound in 0.2 mg/mL HLM solution and 15 μL of 4×substrate solution. The 96-well assay plate and NADPH solution were pre-incubated at 37° C. for 5 minutes. 15 μL of pre-warmed 8 mM NADPH solution was added to into the assay plates to initiate the reaction. The assay plate was incubated at 37° C. 5 mins, 10 mins, and 45 mins. […]

CYP2C9 = target: T2, CYP2C9 (Homo sapiens, UniProt P11712); assay: CYP inhibition in HLM, CYP2C9; type: in vitro ADME; conditions: read-out: CYP inhibition (IC50 um) 2C9
T2 construct: from tissue; host or cells: liver microsomes (HLM)
T2 sequence (P11712 whole entry): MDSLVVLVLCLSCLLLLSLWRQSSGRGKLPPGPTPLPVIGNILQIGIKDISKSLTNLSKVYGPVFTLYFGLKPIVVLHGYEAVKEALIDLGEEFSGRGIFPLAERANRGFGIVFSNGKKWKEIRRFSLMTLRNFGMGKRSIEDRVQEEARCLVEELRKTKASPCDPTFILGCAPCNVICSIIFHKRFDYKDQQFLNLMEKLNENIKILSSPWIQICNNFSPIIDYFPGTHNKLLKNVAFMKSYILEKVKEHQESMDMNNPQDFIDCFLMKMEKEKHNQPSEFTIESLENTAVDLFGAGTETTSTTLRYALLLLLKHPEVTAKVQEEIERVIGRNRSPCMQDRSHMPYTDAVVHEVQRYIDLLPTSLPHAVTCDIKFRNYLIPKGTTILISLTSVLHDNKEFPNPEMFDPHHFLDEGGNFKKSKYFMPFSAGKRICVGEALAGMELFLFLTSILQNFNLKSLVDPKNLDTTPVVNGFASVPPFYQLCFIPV
Method: as §1, §2, §3

CYP3A4 = target: T3, CYP3A4 (Homo sapiens, UniProt P08684); assay: CYP inhibition in HLM, CYP3A4; type: in vitro ADME; conditions: read-out: CYP inhibition (IC50 um) 3A
T3 construct: from tissue; host or cells: liver microsomes (HLM)
T3 sequence (P08684 whole entry): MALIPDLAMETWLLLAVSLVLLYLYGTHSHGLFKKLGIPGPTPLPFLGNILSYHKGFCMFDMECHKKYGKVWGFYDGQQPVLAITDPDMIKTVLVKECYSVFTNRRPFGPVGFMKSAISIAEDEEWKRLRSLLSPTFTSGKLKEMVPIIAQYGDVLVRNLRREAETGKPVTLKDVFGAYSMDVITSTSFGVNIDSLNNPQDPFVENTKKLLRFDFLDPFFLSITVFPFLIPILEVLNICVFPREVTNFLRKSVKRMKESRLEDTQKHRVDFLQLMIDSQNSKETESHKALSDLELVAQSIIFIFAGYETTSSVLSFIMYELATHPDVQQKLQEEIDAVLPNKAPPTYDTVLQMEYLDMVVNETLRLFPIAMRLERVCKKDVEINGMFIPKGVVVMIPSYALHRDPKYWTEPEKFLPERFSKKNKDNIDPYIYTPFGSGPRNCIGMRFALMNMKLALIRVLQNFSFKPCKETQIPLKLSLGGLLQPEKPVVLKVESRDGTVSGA
Method: as §1, §2, §3

[1] = Log D octanol / potassium phosphate buffer; type: physicochemical; conditions: octanol / potassium phosphate buffer (pH 7.4), 25° C.
Method: 10 μL of 10 mM stock solutions were placed into a 96-well plate. 300 μL of octanol into the plate was added to the plate. The plate was sealed and agitated on a plate shaker for 5 minutes. The plate was centrifuged at 2000 rpm for 5 minutes. The seal was removed and 600 μL of potassium phosphate buffer (pH 7.4) was added. The plate was sealed, and the two phases were mixed on the plate shaker vigorously for 1 hour at 25° C. The plate was centrifuged at 2000 rpm for 5 minutes after mixing and the seal was removed. 10 μL of water phase samples from the water phase plate was aspirated and mixed with 10 μL of water (1:2 dilution). 180 μL of 50% Ethanol was added into the water phase sample plate (1:10 dilution) to achieve 1:20 dilution. 50 μL of water phase sample was mixed with 100 μL of 50% Ethanol (containing IS) into the water phase sample plate to achieve 1:60 dilution. 10 μL from the octanol phase (the upper phase) was transfered into a new 96-well plate and 190 μL 50% Ethanol (1:20 dilution) was added. 10 μL of 1:20 diluted octanol samples were transferred into a new 96 deep-well plate and 390 μL 50% Ethanol (1:40 dilution) was added to achieve 1:800 dilution. 50 μL of 1:800 diluted octanol samples were transferred into a new 96-well plate again and 100 μL 50% ethanol with IS was added to achieve 1:2400 dilution. Samples were ready for LC/MS analysis.

[2] = read-out: Thermodynamic Solubility Solubility
[3] = read-out: Thermodynamic Solubility Solubility (um)

Row | Structure (SMILES) | No. of writhing's (KM mice) | Percentage of Inhibition (KM mice) [%] | Significant compared to the model group (KM mice) | solubility thermodynamic (Thermodynamic solubility; [2]) [µg/mL] | solubility thermodynamic (Thermodynamic solubility; [3]) [mM] | pIC50 (CYP1A2) | pIC50 (CYP2C9) | pIC50 (CYP3A4) | logD [1]
1 | CC(C)(NC(=O)[C@H]1[C@@H]2CNC[C@H]1C2)c1ncc2c(Cl)cccn12 [Compound 7, (1R,5S,6r)-N-(2-(8-chloroimidazo[1,5-a]pyridin-3-yl)propan-2-yl)-3-azabicyclo[3.1.1]heptane-6-carboxamide] | 10 | 69.16 | Yes | 1680 | 4.44 | < 5.00 | < 5.00 | < 5.00 | -0.07
2 | CC(C)(NC(=O)[C@H]1[C@@H]2CNC[C@H]1C2)c1nc(C2CC2)c2ccccn12 [Compound 9, (1R,5S,6r)-N-(2-(1-cyclopropylimidazo[1,5-a]pyridin-3-yl)propan-2-yl)-3-azabicyclo[3.1.1]heptane-6-carboxamide] | 8 | 62.34 | Yes | 2250 | 6 | < 5.00 | < 5.00 | < 5.00 | -0.11
3 | CC(C)(NC(=O)[C@H]1[C@@H]2CNC[C@H]1C2)c1ncc2c(Br)cccn12 [Compound 8, (1R,5S,6r)-N-(2-(8-bromoimidazo[1,5-a]pyridin-3-yl)propan-2-yl)-3-azabicyclo[3.1.1]heptane-6-carboxamide] | 3 | 86.26 | Yes | 2080 | 4.92 | < 5.00 | < 5.00 | < 5.00 | -0.15
